From patent publication US12565481B2, “6,7-dimethoxy-3-(pyridin-2-yl)quinoline compounds for inhibiting RET” (Guangzhou Baiyunshan Pharmaceutical Holdings Co., Ltd. …, priority 2020, dated 2026) come the findings set out here.

SMILES strings stand for the structures.

For orientation: bioavailability means the share of a dose that reaches the circulation, judged against a reference dose that is usually intravenous.

This data set can be described thus: Pharmacokinetics study of mice. The class given is in vivo. The note with it: mouse, plasma; male CD-1 mice, 2.5 mpk oral administration vs 0.5 mpk intravenous injection. From the text:
The purpose of this experiment was to study the pharmacokinetics of the test compound in the plasma of male CD-1 mice after intravenous injection and oral administration.
The animals were randomly divided into two groups with 2 males in each group. The compounds were formulated into prescribed preparations. Intravenous formulations were formulated with 5% DMSO/95% (6% hydroxypropyl-β-cyclodextrin) to give a clear solution, and oral preparations were formulated with 0.1% Tween80/0.5% HPMC aqueous solution to give a homogeneous suspension.
Whole blood samples were collected from the saphenous vein of the animals 5 minutes, 15 minutes, 30 minutes, 1 hour, 2 hours, 4 hours, 8 hours, 12 hours, and 24 hours after administration. The whole blood sample was added to the centrifuge tube containing anticoagulant, and centrifuged at 3200 g for 10 minutes at 4° C. The supernatant of plasma was taken, frozen quickly on dry ice, and then stored in a −70±10° C. refrigerator until LC-MS/MS analysis.
WinNonlin™ Version 6.3.0 (Pharsight, Mountain View, Calif.) pharmacokinetic software was used to process the plasma drug concentration data of the compounds with a non-compartmental model. The peak concentration (Cmax), peak time (Tmax) and quantifiable end time were obtained directly from the blood drug concentration-time profile. […]

For `CCN1CCN(Cc2cc(F)c(NC(=O)Cc3ccc(-c4cnc5cc(OC)c(OC)cc5c4)nc3)cc2C(F)(F)F)CC1` [Compound 1], the bioavailability was determined as 48.9%.
